From the supplement of paper PMC10307832

Legend:
Assay in all cases: relative viability (nuclei count vs DMSO), 5 days (fraction); higher = more cells survive
Tanzisertib + Lapatinib = compound: O[C@H]1CC[C@H](Nc2ncc3nc(Nc4c(F)cc(F)cc4F)n([C@H]4CCOC4)c3n2)CC1 [Tanzisertib] + CS(=O)(=O)CCNCc1ccc(-c2ccc3ncnc(Nc4ccc(OCc5cccc(F)c5)c(Cl)c4)c3c2)o1 [Lapatinib] (partner 2 µM)
Summary of the method: (§1)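 Values are medians from duplicate plates. Each reflects relative viability, defined as the nuclei count of treated wells over that of vehicle wells. Lung cancer cell lines in 1536-well plates were pin-tool dosed one day after seeding with one drug alone or with a fixed anchor-drug dose plus five library-drug doses (not always all listed) in √10 steps, then fixed, stained and imaged at 4× after 5 days.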

[1] = compound: C[C@@H](N)c1ccc(C(=O)Nc2ccnc3[nH]ccc23)cc1 + Cc1nc(Nc2ncc(C(=O)Nc3c(C)cccc3Cl)s2)cc(N2CCN(CCO)CC2)n1 [Dasatinib] (partner 0.075 µM)
Summary of the method: as §1

[2] = compound: C1CNCCC1C2=CC(=NN2)C3=CC=NC=C3 + Cc1nc(Nc2ncc(C(=O)Nc3c(C)cccc3Cl)s2)cc(N2CCN(CCO)CC2)n1 [Dasatinib] (partner 0.075 µM)
Summary of the method: as §1

Tanzisertib + Phenformin = compound: O[C@H]1CC[C@H](Nc2ncc3nc(Nc4c(F)cc(F)cc4F)n([C@H]4CCOC4)c3n2)CC1 [Tanzisertib] + N=C(N)NC(=N)NCCc1ccccc1 [Phenformin] (partner 250 µM)
Summary of the method: as §1

Cell Line	relative viability (Tanzisertib + Lapatinib; first compound 0.08 µM)	relative viability (Tanzisertib + Lapatinib; first compound 0.253 µM)	relative viability (Tanzisertib + Lapatinib; first compound 0.8 µM)	relative viability (Tanzisertib + Lapatinib; first compound 2.53 µM)	relative viability (Tanzisertib + Lapatinib; first compound 8 µM)	relative viability ([1]; first compound 0.04 µM)	relative viability ([1]; first compound 0.1265 µM)	relative viability ([1]; first compound 0.4 µM)	relative viability ([1]; first compound 1.265 µM)	relative viability ([1]; first compound 4 µM)	relative viability ([2]; first compound 0.08 µM)	relative viability ([2]; first compound 0.8 µM)	relative viability ([2]; first compound 2.53 µM)	relative viability ([2]; first compound 8 µM)	relative viability (Tanzisertib + Phenformin; first compound 0.08 µM)	relative viability (Tanzisertib + Phenformin; first compound 0.253 µM)	relative viability (Tanzisertib + Phenformin; first compound 0.8 µM)	relative viability (Tanzisertib + Phenformin; first compound 2.53 µM)	relative viability (Tanzisertib + Phenformin; first compound 8 µM)
NCI-H358	0.536	0.474	0.413	0.436	0.321	0.173	0.193	0.169	0.165	0.18	0.118	0.16	0.149	0.143	0.361	0.318	0.322	0.271	0.212
NCI-H1734	1.15	1.13	0.952	1.16	1.08	0.347	0.445	0.38	0.284	0.351	0.424	0.533	0.527	0.529	0.469	0.406	0.356	0.387	0.334
EPLC-272H	0.929	1.06	0.955	1.22	1.03	0.43	0.278	0.32	0.211	0.182	0.392	0.348	0.393	0.415	0.329	0.311	0.295	0.327	0.302
NCI-H2126	0.772	0.807	0.82	0.694	0.724	0.72	0.664	0.622	0.626	0.619	0.504	0.613	0.655	0.661	0.566	0.548	0.545	0.534	0.516
